Patent US20080009418A1, “Selective Inhibitors” (Alchemia LTD., priority 2004, published 2008)

What was measured:
Human δ-opioid (DOP) = biological target: T1, Human δ-opioid (DOP) (Homo sapiens, UniProt P41143); assay: Radioligand binding, human δ-opioid (DOP) membranes, FlashPlate, [3H]-Bremazocine; conditions: compound at 10 μM; [3H]-Bremazocine
T1 construct: purchased Perkin Elmer Biosignal
How it was run: (§1)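 Cloned human receptor membranes were coated onto FlashPlate wells and incubated with radioligand and compound (added from a 0.5 mM DMSO daughter plate) for 1 hour at room temperature in the dark. Scintillation counting gave percent inhibition, with DMSO defining total and reference ligand defining non-specific binding.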

[1] = biological target: T2, Human neuropeptide Y (NPY-Y1) (Homo sapiens, UniProt P25929); assay: Radioligand binding, human neuropeptide Y NPY-Y1 membranes, FlashPlate, [125I]-PYY; conditions: compound at 10 μM, [125I]-PYY
T2 construct: purchased Perkin Elmer Biosignal
T2 sequence (P25929 1-384): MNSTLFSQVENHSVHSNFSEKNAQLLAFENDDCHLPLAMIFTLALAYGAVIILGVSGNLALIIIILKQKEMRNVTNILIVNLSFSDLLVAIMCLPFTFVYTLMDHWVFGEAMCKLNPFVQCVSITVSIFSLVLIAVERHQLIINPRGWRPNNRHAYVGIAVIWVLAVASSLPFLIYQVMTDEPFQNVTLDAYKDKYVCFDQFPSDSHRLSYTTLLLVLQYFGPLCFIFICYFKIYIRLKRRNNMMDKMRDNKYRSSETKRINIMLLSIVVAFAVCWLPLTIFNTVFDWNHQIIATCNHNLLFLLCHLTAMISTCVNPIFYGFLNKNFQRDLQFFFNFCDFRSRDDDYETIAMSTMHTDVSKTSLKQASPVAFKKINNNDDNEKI
How it was run: as §1

Human μ-opioid (MOP) = biological target: T3, Human μ-opioid (MOP) (Homo sapiens, UniProt P35372); assay: Radioligand binding, human μ-opioid (MOP) membranes, FlashPlate, [3H]-Naloxone; conditions: compound at 10 μM; [3H]-Naloxone
T3 construct: purchased Perkin Elmer Biosignal
T3 sequence (P35372 whole entry): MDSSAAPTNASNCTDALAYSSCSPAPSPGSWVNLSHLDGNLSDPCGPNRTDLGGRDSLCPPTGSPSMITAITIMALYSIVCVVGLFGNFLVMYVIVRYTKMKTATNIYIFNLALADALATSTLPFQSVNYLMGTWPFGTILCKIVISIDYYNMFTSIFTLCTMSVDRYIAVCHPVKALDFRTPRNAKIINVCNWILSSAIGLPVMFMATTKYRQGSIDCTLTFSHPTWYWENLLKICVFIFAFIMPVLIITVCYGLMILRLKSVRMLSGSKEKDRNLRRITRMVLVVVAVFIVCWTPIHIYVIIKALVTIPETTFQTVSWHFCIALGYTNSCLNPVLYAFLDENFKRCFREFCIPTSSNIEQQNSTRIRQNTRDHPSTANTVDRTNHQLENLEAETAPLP
How it was run: as §1

Human Melanocortin (MC4) = biological target: T4, Human Melanocortin (MC4) (Homo sapiens, UniProt P32245); assay: Radioligand binding, human melanocortin MC4 membranes, FlashPlate, [125I]-NDP-αMSH; conditions: compound at 10 μM; [125I]-NDP-αMSH
T4 construct: purchased Perkin Elmer Biosignal
T4 sequence (P32245 whole entry): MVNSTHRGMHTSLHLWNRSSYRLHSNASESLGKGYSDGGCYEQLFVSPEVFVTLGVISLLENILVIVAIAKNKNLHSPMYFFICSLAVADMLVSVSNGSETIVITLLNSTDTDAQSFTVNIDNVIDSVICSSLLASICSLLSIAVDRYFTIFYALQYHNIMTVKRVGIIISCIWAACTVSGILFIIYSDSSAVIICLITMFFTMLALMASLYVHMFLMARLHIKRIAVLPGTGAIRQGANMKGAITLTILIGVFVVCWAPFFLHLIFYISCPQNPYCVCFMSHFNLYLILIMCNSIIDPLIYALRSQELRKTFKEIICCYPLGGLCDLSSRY
How it was run: as §1

Human melanocortin (MC5) = biological target: T5, Human melanocortin (MC5) (Homo sapiens, UniProt P33032); assay: Radioligand binding, human melanocortin MC5 membranes, FlashPlate, [125I]-NDP-αMSH; conditions: compound at 10 μM; [125I]-NDP-αMSH
T5 construct: purchased Perkin Elmer Biosignal
T5 sequence (P33032 whole entry): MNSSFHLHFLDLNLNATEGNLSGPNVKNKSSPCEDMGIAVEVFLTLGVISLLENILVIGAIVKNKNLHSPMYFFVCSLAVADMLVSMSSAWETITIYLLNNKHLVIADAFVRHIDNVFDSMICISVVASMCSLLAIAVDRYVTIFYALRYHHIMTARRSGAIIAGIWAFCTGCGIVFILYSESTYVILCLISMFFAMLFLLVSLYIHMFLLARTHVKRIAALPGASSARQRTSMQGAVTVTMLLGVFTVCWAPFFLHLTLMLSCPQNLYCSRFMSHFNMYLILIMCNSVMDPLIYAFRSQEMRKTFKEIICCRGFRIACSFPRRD
How it was run: as §1

Mouse urotensin (mUR2) = biological target: T6, Mouse urotensin (mUR2) (Mus musculus, UniProt Q8VIH9); assay: Radioligand binding, mouse urotensin mUR2 membranes, FlashPlate, [125I]-Urotensin II; conditions: compound at 10 μM; [125I]-Urotensin II
T6 construct: purchased Perkin Elmer Biosignal
T6 sequence (Q8VIH9 1-385): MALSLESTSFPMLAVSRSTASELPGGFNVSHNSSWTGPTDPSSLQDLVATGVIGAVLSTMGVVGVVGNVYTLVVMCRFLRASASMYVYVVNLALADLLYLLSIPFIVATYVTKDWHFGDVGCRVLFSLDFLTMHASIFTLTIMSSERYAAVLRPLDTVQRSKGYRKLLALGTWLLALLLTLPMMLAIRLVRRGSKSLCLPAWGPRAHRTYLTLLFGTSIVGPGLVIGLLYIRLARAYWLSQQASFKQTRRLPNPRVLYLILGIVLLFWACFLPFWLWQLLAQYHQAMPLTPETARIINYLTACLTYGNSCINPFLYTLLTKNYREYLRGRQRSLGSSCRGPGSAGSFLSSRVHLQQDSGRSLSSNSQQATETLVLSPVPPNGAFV
How it was run: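 Cloned mouse urotensin (mUR2) receptor membranes from Perkin Elmer Biosignal were immobilized in FlashPlate microplates using a proprietary coating. Each well got 19.5 μl buffer, then 0.5 μl of DMSO, reference ligand, or compound. Adding 5 μl of [125I]-Urotensin II, diluted to 5× final concentration in binding buffer, started binding. Plates were sealed with TopSeal-A and incubated 1 hour at room temperature in the dark. Wells were counted for 30 seconds each on a TopCount after a 60-second delay, and percentage inhibition was calculated.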

Human opioid (ORL1) = biological target: T7, Human opioid (ORL1) (Homo sapiens, UniProt P41146); assay: Radioligand binding, human opioid ORL1 membranes, FlashPlate, [125I]-Nociceptin; conditions: compound at 10 μM, [125I]-Nociceptin
T7 construct: purchased Perkin Elmer Biosignal
T7 sequence (P41146 whole entry): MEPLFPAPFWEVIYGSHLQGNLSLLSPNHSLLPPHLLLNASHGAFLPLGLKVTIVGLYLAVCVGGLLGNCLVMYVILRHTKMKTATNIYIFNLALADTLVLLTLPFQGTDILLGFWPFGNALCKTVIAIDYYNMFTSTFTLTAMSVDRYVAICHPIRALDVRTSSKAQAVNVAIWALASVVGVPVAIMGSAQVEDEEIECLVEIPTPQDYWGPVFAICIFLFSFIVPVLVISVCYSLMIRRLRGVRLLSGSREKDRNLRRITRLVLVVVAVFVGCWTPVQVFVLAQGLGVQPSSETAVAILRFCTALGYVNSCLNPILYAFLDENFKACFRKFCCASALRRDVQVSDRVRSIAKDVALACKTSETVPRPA
How it was run: as §1

[2] = biological target: T8, Human melanin-concentrating hormone (MCH1) (Homo sapiens, UniProt Q99705); assay: Radioligand binding, human melanin-concentrating hormone MCH1 membranes, FlashPlate, [125I]-S36057; conditions: compound at 10 μM; [125I]-S36057
T8 construct: purchased Perkin Elmer Biosignal
T8 sequence (Q99705 whole entry): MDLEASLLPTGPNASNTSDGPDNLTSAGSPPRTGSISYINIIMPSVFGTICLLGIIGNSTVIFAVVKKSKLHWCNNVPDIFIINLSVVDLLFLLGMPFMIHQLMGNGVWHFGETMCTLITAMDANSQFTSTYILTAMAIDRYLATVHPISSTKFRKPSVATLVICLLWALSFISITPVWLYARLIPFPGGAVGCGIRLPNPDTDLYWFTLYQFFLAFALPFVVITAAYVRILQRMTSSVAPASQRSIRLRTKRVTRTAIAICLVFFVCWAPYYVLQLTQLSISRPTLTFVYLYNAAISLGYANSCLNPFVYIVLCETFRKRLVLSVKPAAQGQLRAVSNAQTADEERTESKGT
How it was run: as §1

Human κ-Opioid (KOP) = biological target: T9, Human κ-Opioid (KOP) (Homo sapiens, UniProt P41145); assay: Radioligand binding, human κ-opioid (KOP) membranes, filtration, [3H]-Diprenorphine; conditions: compound at 10 μM, [3H]-Diprenorphine
T9 construct: purchased Perkin Elmer Biosignal
T9 sequence (P41145 whole entry): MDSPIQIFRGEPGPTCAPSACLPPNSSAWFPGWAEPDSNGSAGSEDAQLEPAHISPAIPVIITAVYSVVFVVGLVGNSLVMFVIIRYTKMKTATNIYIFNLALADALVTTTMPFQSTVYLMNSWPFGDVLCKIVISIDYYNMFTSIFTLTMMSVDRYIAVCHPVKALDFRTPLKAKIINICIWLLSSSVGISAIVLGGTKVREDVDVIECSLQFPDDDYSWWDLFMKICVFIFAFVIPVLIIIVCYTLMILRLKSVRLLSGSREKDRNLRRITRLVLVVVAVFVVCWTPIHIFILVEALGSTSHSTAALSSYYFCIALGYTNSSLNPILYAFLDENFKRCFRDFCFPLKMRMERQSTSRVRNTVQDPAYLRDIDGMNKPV
How it was run: (§2)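 Percent inhibition of radioligand binding measured on recombinant human membranes: NK1 with [125I]-Substance P, KOP with [3H]-Diprenorphine. Incubation 1 h at room temperature, then harvest onto 0.3% PEI-soaked filters, cold Tris-HCl pH 7.4 washes and scintillation counting; non-specific binding from reference ligand wells.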

Human neurokinin (NK1) = biological target: T10, Human neurokinin (NK1) (Homo sapiens, UniProt P25103); assay: Radioligand binding, human neurokinin NK1 membranes, filtration, [125I]-Substance P; conditions: compound at 10 μM; [125I]-Substance P
T10 construct: purchased Perkin Elmer Biosignal
T10 sequence (P25103 whole entry): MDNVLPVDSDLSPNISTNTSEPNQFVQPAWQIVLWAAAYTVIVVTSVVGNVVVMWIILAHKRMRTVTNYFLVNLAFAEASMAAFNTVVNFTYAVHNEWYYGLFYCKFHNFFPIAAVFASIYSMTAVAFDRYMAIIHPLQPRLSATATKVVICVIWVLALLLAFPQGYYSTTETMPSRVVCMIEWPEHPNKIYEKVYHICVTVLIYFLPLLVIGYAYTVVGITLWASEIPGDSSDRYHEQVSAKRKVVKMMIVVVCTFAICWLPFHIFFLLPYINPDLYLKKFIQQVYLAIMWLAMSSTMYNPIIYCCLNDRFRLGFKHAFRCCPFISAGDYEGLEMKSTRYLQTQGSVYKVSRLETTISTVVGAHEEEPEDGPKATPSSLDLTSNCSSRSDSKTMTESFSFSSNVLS
How it was run: as §2

Human Melanocortin (MC3) = biological target: T11, Human Melanocortin (MC3) (Homo sapiens, UniProt P41968); assay: Radioligand binding, human melanocortin MC3 membranes, FlashPlate, [125I]-NDP-αMSH; conditions: compound at 10 μM; [125I]-NDP-αMSH
T11 construct: purchased Perkin Elmer Biosignal
T11 sequence (P41968 whole entry): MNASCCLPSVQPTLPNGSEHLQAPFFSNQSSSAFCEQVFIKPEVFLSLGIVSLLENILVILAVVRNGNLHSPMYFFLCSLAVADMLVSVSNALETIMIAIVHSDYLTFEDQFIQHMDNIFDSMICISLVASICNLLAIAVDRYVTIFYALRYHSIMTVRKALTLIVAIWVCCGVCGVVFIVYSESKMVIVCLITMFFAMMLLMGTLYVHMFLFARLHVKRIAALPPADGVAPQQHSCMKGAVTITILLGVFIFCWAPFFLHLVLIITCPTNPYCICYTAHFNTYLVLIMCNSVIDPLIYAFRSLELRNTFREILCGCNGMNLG
How it was run: as §1

T1 sequence (P41143 whole entry): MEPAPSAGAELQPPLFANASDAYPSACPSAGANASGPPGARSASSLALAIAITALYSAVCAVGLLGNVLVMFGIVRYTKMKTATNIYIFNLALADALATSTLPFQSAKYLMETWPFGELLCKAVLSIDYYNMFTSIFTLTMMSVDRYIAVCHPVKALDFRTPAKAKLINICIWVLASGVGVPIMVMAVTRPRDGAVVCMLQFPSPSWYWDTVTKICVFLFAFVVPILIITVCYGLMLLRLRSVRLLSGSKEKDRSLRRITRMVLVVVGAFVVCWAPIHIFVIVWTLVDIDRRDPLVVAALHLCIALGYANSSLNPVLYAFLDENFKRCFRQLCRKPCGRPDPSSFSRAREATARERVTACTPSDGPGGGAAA

| Compound | A1: inhibition of radioligand binding, human δ-opioid (DOP) (Human δ-opioid (DOP)) | A9: inhibition of radioligand binding, human neuropeptide Y (NPY-Y1) [1] | A7: inhibition of radioligand binding, human μ-opioid (MOP) (Human μ-opioid (MOP)) | A4: inhibition of radioligand binding, human melanocortin (MC4) (Human Melanocortin (MC4)) | A5: inhibition of radioligand binding, human melanocortin (MC5) (Human melanocortin (MC5)) | A11: inhibition of radioligand binding, mouse urotensin (mUR2) (Mouse urotensin (mUR2)) | A10: inhibition of radioligand binding, human opioid (ORL1) (Human opioid (ORL1)) | A6: inhibition of radioligand binding, human melanin-concentrating hormone (MCH1) [2] | A2: inhibition of radioligand binding, human κ-opioid (KOP) (Human κ-Opioid (KOP)) | A8: inhibition of radioligand binding, human neurokinin (NK1) (Human neurokinin (NK1)) | A3: inhibition of radioligand binding, human melanocortin (MC3) (Human Melanocortin (MC3)) | A9: inhibition of radioligand binding, human neuropeptide Y (NPY-Y1) ([1]; 10 µM) | A2: inhibition of radioligand binding, human κ-opioid (KOP) (Human κ-Opioid (KOP); 10 µM) | A10: inhibition of radioligand binding, human opioid (ORL1) (Human opioid (ORL1); 10 µM) |
| --- | --- | --- | --- | --- | --- | --- | --- | --- | --- | --- | --- | --- | --- | --- |
| N=C(N)NCC(=O)N[C@H]1C(OCc2ccc(Cl)cc2)O[C@H](COCc2ccc(Cl)cc2)[C@@H](O)[C@@H]1OCc1ccc(Cl)cc1 (stereo partly shown) [compound 511] | − (“−” indicates less than 50% inhibition at 10 μM) | − (“−” indicates less than 50% inhibition at 10 μM) | + (“+” indicates greater than 50% inhibition at 10 μM) | + (“+” indicates greater than 50% inhibition at 10 μM) | + (“+” indicates greater than 50% inhibition at 10 μM) | − (“−” indicates less than 50% inhibition at 10 μM) | + (“+” indicates greater than 50% inhibition at 10 μM) | + (“+” indicates greater than 50% inhibition at 10 μM) | − (“−” indicates less than 50% inhibition at 10 μM) | + (“+” indicates greater than 50% inhibition at 10 μM) | + (“+” indicates greater than 50% inhibition at 10 μM) | – | – | – |
| N=C(N)NCC(=O)N[C@H]1C(OCc2ccc(Cl)cc2)O[C@H](COCc2ccc3ccccc3c2)[C@@H](O)[C@@H]1OCc1ccc2ccccc2c1 (stereo partly shown) [compound 512] | − (“−” indicates less than 50% inhibition at 10 μM) | – | + (“+” indicates greater than 50% inhibition at 10 μM) | + (“+” indicates greater than 50% inhibition at 10 μM) | + (“+” indicates greater than 50% inhibition at 10 μM) | − (“−” indicates less than 50% inhibition at 10 μM) | + (“+” indicates greater than 50% inhibition at 10 μM) | + (“+” indicates greater than 50% inhibition at 10 μM) | – | + (“+” indicates greater than 50% inhibition at 10 μM) | + (“+” indicates greater than 50% inhibition at 10 μM) | − (“−” indicates less than 50% inhibition at 10 μM) | − (“−” indicates less than 50% inhibition at 10 μM) | – |
| N=C(N)NCC(=O)N[C@H]1C(OCc2ccc(Cl)cc2)O[C@H](COCc2ccc3ccccc3c2)[C@@H](O)[C@@H]1OCc1ccc2ccccc2c1 (stereo partly shown) [compound 513] | − (“−” indicates less than 50% inhibition at 10 μM) | – | + (“+” indicates greater than 50% inhibition at 10 μM) | + (“+” indicates greater than 50% inhibition at 10 μM) | + (“+” indicates greater than 50% inhibition at 10 μM) | − (“−” indicates less than 50% inhibition at 10 μM) | + (“+” indicates greater than 50% inhibition at 10 μM) | + (“+” indicates greater than 50% inhibition at 10 μM) | – | + (“+” indicates greater than 50% inhibition at 10 μM) | + (“+” indicates greater than 50% inhibition at 10 μM) | + (“+” indicates greater than 50% inhibition at 10 μM) | + (“+” indicates greater than 50% inhibition at 10 μM) | – |
| N=C(N)NCC(=O)N[C@H]1C(OCc2ccc(Cl)cc2)O[C@H](COCc2ccccc2)[C@@H](O)[C@@H]1OCc1ccc2ccccc2c1 (stereo partly shown) [compound 514] | − (“−” indicates less than 50% inhibition at 10 μM) | + (“+” indicates greater than 50% inhibition at 10 μM) | − (“−” indicates less than 50% inhibition at 10 μM) | + (“+” indicates greater than 50% inhibition at 10 μM) | + (“+” indicates greater than 50% inhibition at 10 μM) | − (“−” indicates less than 50% inhibition at 10 μM) | + (“+” indicates greater than 50% inhibition at 10 μM) | + (“+” indicates greater than 50% inhibition at 10 μM) | − (“−” indicates less than 50% inhibition at 10 μM) | + (“+” indicates greater than 50% inhibition at 10 μM) | + (“+” indicates greater than 50% inhibition at 10 μM) | – | – | – |
| N=C(N)NCC(=O)N[C@H]1C(OCc2ccc(Cl)cc2)O[C@H](COCc2ccc(Cl)cc2)[C@@H](O)[C@@H]1OCc1ccc2ccccc2c1 (stereo partly shown) [compound 515] | − (“−” indicates less than 50% inhibition at 10 μM) | − (“−” indicates less than 50% inhibition at 10 μM) | − (“−” indicates less than 50% inhibition at 10 μM) | + (“+” indicates greater than 50% inhibition at 10 μM) | + (“+” indicates greater than 50% inhibition at 10 μM) | − (“−” indicates less than 50% inhibition at 10 μM) | – | + (“+” indicates greater than 50% inhibition at 10 μM) | − (“−” indicates less than 50% inhibition at 10 μM) | + (“+” indicates greater than 50% inhibition at 10 μM) | + (“+” indicates greater than 50% inhibition at 10 μM) | – | – | + (“+” indicates greater than 50% inhibition at 10 μM) |
